Measurements as given in US20040204590A1, “Ep4 receptor agonist, compositions and methods thereof” (priority 2001, published 2004).

Experiments:
RCT-3 cells [1] = assay: EP4 mRNA expression in RCT-3 cells (Northern blot); assay type: cell-based, rat
Description: (§1) RCT-1 and RCT-3 are clonal cell lines immortalized by SV-40 large T antigen from cells released from fetal rat calvair by a cmbination collagenase/hyaluronidase digestion. RCT-1 cells, derived from cells released during the first 10 minutes of digestion (fraction I), are cultured in RPMI 1640 medium (BRL) with 10% fetal bovine serum and 0.4 mg/ml G418 (BRL). These cells differentiate and express osteoblastic features upon retinoic acid treatment. RCT-3 cells, immortalized from osteoblast-enriched fraction […] cells, are cultured in F-12 medium (BRL) with 5% Fetal bovine serum and 0.4 mg/ml G418. TRAB-11 cells are also immortalized by SV40 large T antigen from adult rat tibia and are cultured in RPMI 1640 medium with 10% FBS and 0.4 mg/ml G418. ROS 17/2.8 rat osteosarcoma cells are cultured in F-12 containing 5% FBS. Osteoblast-enriched (fraction III) primary fetal rat calvaria cells are obtained by collagenase/hyaluronidase digestion of calvariae of 19 day-old rat fetuses. See Rodan et al., Growth stimulation of rat calvaria osteoblastic cells by acidic FGF, Endocrinology, 121, 1919-1923 (1987), which is incorporated by reference herein in its entirety. Cells are released during 30-50 minutes digestion (fraction III) and are cultured in F-12 medium containing 5% FBS. […]

RCT-3 cells [2] = assay: Effect on intracellular cAMP in RCT-3 cells; assay type: cell-based, rat
Description: as §1

TRAB-11 cells = assay: Effect on intracellular cAMP in TRAB-11 cells; assay type: cell-based, rat
Description: as §1

[3] = system: ROS 17/2.8 rat osteosarcoma cells; assay: Effect on intracellular cAMP in ROS 17/2.8 cells; assay type: cell-based
Description: as §1

[4] = system: EP4 expression in bone marrow cells; assay: Localization of EP4 mRNA in bone tissue by in situ hybridization; assay type: in vivo, rat; conditions: rats, single anabolic dose
Description: (§2) For mRNA localization experiments, 5-week old Sprague-Dawley rats (Charles River) are euthanized by CO2, their tibiae and calvariae are excised, cleaned of soft tissues and frozen immediately in liquid nitrogen. For EP4 regulation experiments, 6-week old rats are given a single injection of either vehicle (7% ethanol in sterile water) or an anabolic dose of PGE2 (Cayman Chemical, Ann Arbor, Mich.), 3-6 mg/kg in the same vehicle) intraperitoneally. Animals are euthanized at several time points post-injection and their tibiae and calvariae, as well as samples from lung and kidney tissues are frozen in liquid nitrogen.
Frozen tibiae are sectioned coronally at […] thickness and sections are mounted on charged slides (Probe On Plus, Fisher Scientific, Springfield, N.J.) and are kept at −70° C. until hybridization. cRNA probes are labeled with ^35S-UPgS (ICN, Costa Mesa, Calif.) using a Riboprobe II kit (Promega Madison, Wis.). Hybridization is performed overnight at 50° C. See M. Weinreb et al., Different pattern of alkaline phosphatase, osteopontin and osteocalcin expression in developing rat bone visualized by in-situ hybridization, J. Bone Miner Res., 5, 831-842 (1990) and D. Shinar et al., Expression of alphav and beta3 integrin subunits in rat osteoclasts in situ, J. Bone Miner. Res., 8, 403-414 (1993), which are both incorporated by reference herein in their entirety. […]

RP-1 periosteal cells = assay: EP4 and EP2 mRNA expression in RP-1 periosteal cells (Northern blot); assay type: cell-based, rat; conditions: RP-1 cells
Description: RP-1 periosteal cells are spontaneously immortalized from primary cultures of periosteal cells from tibae of 4-week old Sprague-Dawley rats and are cultured in DMEM (BRL, Gaithersburg, Md.) with 10% fetal bovine serum (JRH Biosciences, Lenexa, Kans.).
Total RNA is extracted from the tibial metaphysis or diaphysis and calvaria using a guanidinium isothiocyanate-phenol-chloroform method after pulverizing frozen bone samples by a tissue homogenizer. See P. Chomczynski et al., Single-step method of RNA isolation by acid guanidium thiocyanate-phenol-chloroform extraction., Analyt Biochem, 162, 156-159 (1987), which is incorporated by reference herein in its entirety. RNA samples ([…]) are separated on 0.9% agarose/formaldehyde gels and transferred onto nylon membranes (Boehringer Mannheim, Germany). Membranes are prehybridized in Hybrisol I (Oncor, Gaithersburg, Md.) and 0.5 mg/ml sonicated salmon sperm DNA (Boehringer) at 42° C. for 3 hours and are hybridized at 420C with rat EP2 and mouse EP4 cDNA probes labeled with [^32P]-dCTP (Amersham, Buckinghamshire, UK) by random priming using the rediprime kit (Amersham). After hybridization, membranes are washed 4 times in 2×SSC+0.1% SDS at room temperature for a total of 1 hour and once with 0.2×SSC+0.1% SDS at 550C for 1 hour and then exposed to Kodak XAR 2 film at −70° C. using intensifying screens. […]

EP4 mRNA in bone tissue = assay: EP4 and EP2 mRNA levels in bone tissue of injected rats (Northern blot); assay type: in vivo, rat; conditions: injected 3-6 mg/Kg
Description: as §2
Total RNA is extracted from the tibial metaphysis or diaphysis and calvaria using a guanidinium isothiocyanate-phenol-chloroform method after pulverizing frozen bone samples by a tissue homogenizer. See P. Chomczynski et al., Single-step method of RNA isolation by acid guanidium thiocyanate-phenol-chloroform extraction., Analyt Biochem, 162, 156-159 (1987), which is incorporated by reference herein in its entirety. RNA samples ([…]) are separated on 0.9% agarose/formaldehyde gels and transferred onto nylon membranes (Boehringer Mannheim, Germany). […]

CCCCC[C@H](O)/C=C/[C@H]1[C@H](O)CC(=O)[C@@H]1C/C=C\CCCC(=O)O [PGE2]
EP4 mRNA levels (RCT-3 cells [1]): no effect
effect on intracellular cAMP (RCT-3 cells [2]): markedly induced
effect on intracellular cAMP (TRAB-11 cells): markedly induced
effect on intracellular cAMP [3]: no effect
expression of EP4 in bone marrow cells [4]: increased
EP4 mRNA levels (RP-1 periosteal cells; 10^−6 M): rapidly increases
EP2 mRNA expression (RP-1 periosteal cells; before or after treatment): not expressed
EP4 mRNA levels in the tibial diaphysis (EP4 mRNA in bone tissue; five-week-old male rats): rapidly increased
EP2 mRNA in bone tissue (EP4 mRNA in bone tissue; rats): does not induce
